Values quoted from earlier work, collected in patent US20250195458A1, “SHORT-CHAIN FATTY ACIDS FOR CANCER TREATMENT” (priority 2022, published 2025).

Columns and labels:
pancreatic cancer = details: literature summary of Example 2
human lung cancer cells = details: literature summary of Example 2
colorectal cancer cells = details: literature summary of Example 2
[1] = test system: pancreatic carcinoma cell lines (Capan-2, AsPC-1, and MiaPaCa-2); details: Capan-2, AsPC-1, MiaPaCa-2; literature summary of Example 2

SMILES: CCCC(=O)[O-].[Na+] [Sodium butyrate]
- Invasion of pancreatic cancer (pancreatic cancer): hinders the invasion of pancreatic cancer
- Expression levels of P-gp and STAT3 in human lung cancer cells (human lung cancer cells): increases the expression levels of P-gp and STATS3

SMILES: CCC(=O)O [Propionate]
- Anti-tumor effect in colorectal cancer (apoptosis) (colorectal cancer cells): induces apoptosis in colon cancer
- Apoptosis and cell cycle arrest, lung cancer (human lung cancer cells): triggering cell apoptosis and cell cycle arrest

SMILES: CC(=O)O [Acetate]
- Anti-tumor effect in colorectal cancer (apoptosis) (colorectal cancer cells): triggers apoptosis in colorectal cancer cells

SMILES: CC(=O)O[C@]1(C(C)=O)CC[C@H]2[C@@H]3C[C@H](C)C4=CC(=O)CC[C@]4(C)[C@H]3CC[C@@]21C [Medroxyprogesterone acetate]
- Proliferation of pancreatic carcinoma cell lines [1]: blocks the proliferation
